# Results as given in PubChem BioAssay AID493003 (Sanford-Burnham Center for Chemical Genomics, 2010).
# Calls of active or inactive are those of the source. How the calls were made is not given here.
# System: S. cerevisiae tim10-1 mutant growth, luminescence
# Test: growth inhibitors of tim10-1 mutant yeast, dose response, luminescence, S. cerevisiae, uHTS hits (AID 493003);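 further: yeast growth measured after about 22 hours at 25 °C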
row,Compound,IC50
1,Cc1ccc(C(=O)c2no[n+]([O-])c2C(=O)c2ccc(C)cc2)cc1,15.3 µM
2,Nc1nc(N)c(C=Nc2ccc(Br)cc2)c(Nc2ccc(Br)cc2)n1,16.8 µM
3,O=S(=O)(/N=C(/Sc1ccccc1)c1ccccc1)c1ccccc1,25.7 µM
4,CCN1CCN(c2cc(N3CCc4ccccc4C3)c(F)cc2[N+](=O)[O-])CC1,29 µM
5,N/C(=N\OC(=O)c1ccc(Cl)cc1)c1ccc(Cl)cc1,3.34 µM
6,CN(C)c1ccc(-[n+]2c(-c3ccccc3)cc(-c3ccccc3)cc2-c2ccccc2)cc1,23.7 µM
7,COC(=O)c1ccccc1NC(=S)NC(=O)C1CCCCC1,42.5 µM
8,COc1ccc(-c2oc3ncnc(NCCCN(C)C)c3c2-c2ccc(OC)cc2)cc1,65.5 µM
9,Cc1ccc(C(=O)N2CCN(c3ccc(NC(=O)c4ccc(Br)o4)cc3)CC2)cc1,32.2 µM
10,O=C(NNC(=S)Nc1cccc(C(F)(F)F)c1)c1cccc(Cl)c1,10 µM
11,O=C(O)/C=C/C(=O)c1ccc2c(c1)CCc1ccccc1-2,10.9 µM
12,S=c1[nH]nc(-c2ccco2)n1/N=C/C=C/c1ccccc1,42.7 µM
13,c1ccc(-c2csc3ncnc(-n4cnc5ccccc54)c23)cc1,15.8 µM
14,CCOC(=O)N1CCN(S(=O)(=O)c2ccc3c(c2)CCN3C(=O)C2CCC2)CC1,34.2 µM
15,O=c1oc2ccccc2c(O)c1/C=C1\C=Nc2ccccc21,6.24 µM
16,Cc1cccc(Nc2ncccc2C(=O)NCc2cccs2)c1C,53.3 µM
17,Cc1ccc(OCC(=O)O/N=C(\N)Cc2ccc([N+](=O)[O-])cc2)cc1C,25.1 µM
18,Cc1ccc(NC(=S)NNC(=O)CSc2nc3ccccc3c(=O)n2-c2ccc(C)cc2)cc1,44.9 µM
19,CSc1ccc(-c2nc3cnccn3c2Nc2ccc3c(c2)OCO3)cc1,59.4 µM

row,Compound,IC50
1,Cc1c(C(=O)NC2CCCc3ccccc32)oc2ccccc12 (configuration not stated),20.2 µM
2,CC(C)Nc1nnc(Sc2ccc(Cl)cc2[N+](=O)[O-])s1,8.34 µM
3,COc1ccc(NS(=O)(=O)c2ccc3oc4ccccc4c3c2)cn1,28.3 µM
4,C/C=C(/C(=C/C)c1ccc(O)cc1)c1ccc(O)cc1,25.6 µM
5,CCOC(=O)Cc1csc(NC(=O)CSc2ccc(Br)cc2)n1,37.8 µM
6,O=S(=O)(NCCNc1ncc(C(F)(F)F)cc1Cl)C(F)(F)F,26.6 µM
7,CCOC(=O)n1c(=O)n(Cc2ccccc2Cl)c2ccccc21,27.6 µM
8,Cc1nn(C)c(C)c1NC(=O)Nc1ccc(Cl)c(Cl)c1,22.4 µM
9,Cc1cc(C)cc(NC(=O)c2cc(S(=O)(=O)NCc3ccco3)ccc2F)c1,32.3 µM
10,O=C(O)c1ccc(C=C(c2nc3ccccc3s2)c2nc3ccccc3s2)cc1,> 100 µM (inactive)
11,Fc1ccc(-c2csc3ncnc(Nc4ccc(N5CCOCC5)cc4)c23)cc1,41.2 µM
12,COc1ccc(Sc2cnn(-c3ccccc3)c(=O)c2Cl)cc1,35.6 µM
13,CC(C)NC(=S)N/N=C1\CCCCc2ccccc21,13.9 µM
14,N/C(=N\OC(=O)CCCc1ccccc1)c1ccc([N+](=O)[O-])cc1,28.5 µM
15,Fc1ccccc1CNc1ccc(Cl)c(Cl)c1,26.9 µM
16,CC(C)(C)OC(=O)N[C@@H](Cc1ccccc1)c1nnc(S(=O)(=O)Cc2cccc(F)c2)o1,5.87 µM
17,CCSc1nnc(NC(=O)c2nc(-c3ccccc3)n(-c3ccccc3)n2)s1,25.9 µM
18,Clc1cccc(Cl)c1/C=C/c1ccn[nH]1,22.8 µM
19,Cc1ccc(NC(=O)CN2CCC3(O)CCCCC3C2c2ccc3c(c2)OCO3)c(C)c1 (configuration not stated),60.9 µM

row,Compound,IC50
1,CC(NC(=O)Nc1cccc([N+](=O)[O-])c1)(C(F)(F)F)C(F)(F)F,57.2 µM
2,Cc1cc(N/N=C/c2ccccc2O)nc(-c2ccccc2O)n1,76.6 µM
3,COc1cc(/C=C/C(=O)CC(=O)/C=C/c2ccc(O)c(OC)c2)ccc1O,19.7 µM
4,Cc1cc2c(cc1C)CSC(c1ccccc1O)SC2,20.7 µM
5,Cn1nc(-c2ccccc2)cc1NC(=O)Nc1ccc(C(C)(C)C)cc1,20.3 µM
6,COc1ccc(C(=O)O/N=C(\N)c2ccc(Br)cc2)cc1,11.9 µM
7,O=[N+]([O-])c1ccccc1/C=C/C=N/n1c(-c2ccccc2)n[nH]c1=S,73.4 µM
8,CC/C(=N\NC(=S)Nc1cc(C)ccc1C)c1ccc(OC(F)F)cc1,34.9 µM
9,N/C(=N\OC(=O)c1cccc(Cn2cc(C(F)(F)F)ccc2=O)c1)c1ccccc1,23.3 µM
10,CCOC(=O)c1ccc2[nH]c3c(c2c1)CCCC3,34.4 µM
11,COc1ccccc1-c1cc2ccccc2[nH]1,46.9 µM
12,S=C(NCCCc1ccccc1)Nc1ccc(Cl)cc1,11.4 µM
13,COc1ccc(NCc2nnc(SCc3ccc(Cl)cc3)n2-c2ccccc2)cc1,17.4 µM
14,CC(C)(C)C(=O)Nc1nnc(SCc2ccc(F)cc2)s1,42.2 µM
15,FC(F)Sc1ccc(NC(=S)NC2CCCC2)cc1,20.8 µM
16,CC(C)c1ccc(S(=O)(=O)Nc2ccc(SC(F)F)cc2)cc1,45.9 µM
17,Cc1c(C)n(Cc2ccccc2)c2ccc(C(=O)OCCN(C)C)cc12,32.1 µM
18,Cc1ccc(NC(=S)/N=C(\N)Nc2nc(C)c3cc(C)ccc3n2)c(C)c1,12.7 µM
19,N#CC(C#N)=c1ccc2c(c1)NC1(CCCCC1)N=2,30.5 µM
